Reference: patent publication US7271165B2, “Rifamycin analogs and uses thereof” (priority 2003, dated 2007)
≈ marks a conversion by molar mass, not a printed value.

Legend:
S. pneumo. = assay: MIC assay, S. pneumo.; format: cell-based, Streptococcus pneumoniae
E coli = assay: MIC assay, E coli; format: cell-based
E. faecalis = assay: MIC assay, E. faecalis; format: cell-based, Enterococcus faecalis
H. flu = format: cell-based, H. influenza; conditions: H. flu
S. aureus = assay: MIC assay, S. aureus; format: cell-based, Staphylococcus aureus

| SMILES | MIC (μg/mL) S. pneumo. (S. pneumo.) [µg/mL] | MIC (μg/mL) E coli (E coli) [µg/mL] | MIC (μg/mL) E. faecalis (E. faecalis) [µg/mL] | MIC (μg/mL) H. flu (H. flu) [µg/mL] | MIC (μg/mL) S. aureus (S. aureus) [µg/mL] |
| --- | --- | --- | --- | --- | --- |
| COC1C=COC2(C)Oc3c(C)c(O)c4c(=O)c(c5oc6cc(N7CCC(c8ccccc8)CC7)cc(O)c6nc-5c4c3C2=O)NC(=O)C(C)=CC=CC(C)C(O)C(C)C(O)C(C)C(OC(C)=O)C1C (stereo not shown) [Compound 57, 3′-hydroxy-5′-[4-phenyl-1-piperidinyl]benzoxazinorifamycin] | 0.0005 (≈ 0.000521 µM) | 8 (≈ 8.33 µM) | 2 (≈ 2.08 µM) | 0.5 (≈ 0.521 µM) | 0.008 (≈ 0.00833 µM) |
| COC1C=COC2(C)Oc3c(C)c(O)c4c(=O)c(c5oc6cc(N7CC8CCCN(C)C8C7)cc(O)c6nc-5c4c3C2=O)NC(=O)C(C)=CC=CC(C)C(O)C(C)C(O)C(C)C(OC(C)=O)C1C [Compound 58, 3′-hydroxy-5′-[1-methyl-(4aS,7aS)-octahydro-6H-pyrrolo[3,4-b]pyridin-6-yl]benzoxazinorifamycin] | 0.004 (≈ 0.00426 µM) | >8 | 1 (≈ 1.06 µM) | 0.25 (≈ 0.266 µM) | 0.03 (≈ 0.0319 µM) |
| COC1C=COC2(C)Oc3c(C)c(O)c4c(=O)c(c5oc6cc(N7CC8CCCN(C)C8C7)cc(O)c6nc-5c4c3C2=O)NC(=O)C(C)=CC=CC(C)C(O)C(C)C(O)C(C)C(O)C1C [Compound 59, 25-O-deacetyl-3′-hydroxy-5′-[1-methyl-(4aS,7aS)-octahydro-6H-pyrrolo[3,4-b]pyridin-6-yl]benzoxazinorifamycin] | 0.001 (≈ 0.00111 µM) | 4 (≈ 4.46 µM) | 0.06 (≈ 0.0669 µM) | 0.12 (≈ 0.134 µM) | 0.004 (≈ 0.00446 µM) |
| CCOC(=O)NCC1CCN(c2cc(O)c3nc4c5c6c7c(C)c(O)c5c(=O)c(c-4oc3c2)NC(=O)C(C)=CC=CC(C)C(O)C(C)C(O)C(C)C(O)C(C)C(OC)C=COC(C)(O7)C6=O)CC1 (stereo not shown) [Compound 60, 25-O-deacetyl-3′-hydroxy-5′-[4-ethylcarbamylmethyl-1-piperidinyl]benzoxazinorifamycin] | 0.0005 (≈ 0.00053 µM) | >8 | 0.5 (≈ 0.53 µM) | 0.06 (≈ 0.0636 µM) | 0.008 (≈ 0.00848 µM) |
| COC1C=COC2(C)Oc3c(C)c(O)c4c(=O)c(c5oc6cc(N7CCC(CCO)CC7)cc(O)c6nc-5c4c3C2=O)NC(=O)C(C)=CC=CC(C)C(O)C(C)C(O)C(C)C(OC(C)=O)C1C (stereo not shown) [Compound 61, 3′-hydroxy-5′-[4-(2-hydroxyethyl)-1-piperidinyl]benzoxazinorifamycin] | 0.00012 (≈ 0.000129 µM) | >8 | 1 (≈ 1.08 µM) | 0.25 (≈ 0.269 µM) | 0.004 (≈ 0.00431 µM) |
| COC1C=COC2(C)Oc3c(C)c(O)c4c(=O)c(c5oc6cc(N7CCC(c8ccccc8)CC7)cc(O)c6nc-5c4c3C2=O)NC(=O)C(C)=CC=CC(C)C(O)C(C)C(O)C(C)C(O)C1C (stereo not shown) [Compound 62, 25-O-deacetyl-3′-hydroxy-5′-[4-phenyl-1-piperidinyl]benzoxazinorifamycin] | 0.008 (≈ 0.00871 µM) | >8 | 8 (≈ 8.71 µM) | 0.5 (≈ 0.545 µM) | 0.015 (≈ 0.0163 µM) |
| COCCOC(=O)NC1CCN(c2cc(O)c3nc4c5c6c7c(C)c(O)c5c(=O)c(c-4oc3c2)NC(=O)C(C)=CC=CC(C)C(O)C(C)C(O)C(C)C(O)C(C)C(OC)C=COC(C)(O7)C6=O)CC1 (stereo not shown) [Compound 63, 25-O-deacetyl-3′-hydroxy-5′-[4-methoxyethylcarbamyl-1-piperidinyl]benzoxazinorifamycin] | 0.002 (≈ 0.00209 µM) | 8 (≈ 8.34 µM) | 1 (≈ 1.04 µM) | 0.25 (≈ 0.261 µM) | 0.008 (≈ 0.00834 µM) |
| COC1C=COC2(C)Oc3c(C)c(O)c4c(=O)c(c5sc6cc(N7CC(C)NC(C)C7)ccc6nc-5c4c3C2=O)NC(=O)C(C)=CC=CC(C)C(O)C(C)C(O)C(C)C(OC(C)=O)C1C [Compound 64, 5′-[(3R,5S)-3,5-dimethyl-1-piperazinyl]benzthiazinorifamycin] | 0.00012 (≈ 0.000131 µM) | 4 (≈ 4.38 µM) | 0.12 (≈ 0.131 µM) | 0.25 (≈ 0.274 µM) | 0.004 (≈ 0.00438 µM) |
| COC1C=COC2(C)Oc3c(C)c(O)c4c(=O)c(c5sc6cc(N7CC(C)NC(C)C7)ccc6nc-5c4c3C2=O)NC(=O)C(C)=CC=CC(C)C(O)C(C)C(O)C(C)C(O)C1C [Compound 65, 25-O-deacetyl-5′-[(3R,5S)-3,5-dimethyl-1-piperazinyl]benzthiazinorifamycin] | 0.00025 (≈ 0.000287 µM) | 2 (≈ 2.3 µM) | 0.12 (≈ 0.138 µM) | 0.12 (≈ 0.138 µM) | 0.002 (≈ 0.0023 µM) |
| COC1C=COC2(C)Oc3c(C)c(O)c4c(=O)c(c5oc6cc(N7CCC(CCO)CC7)cc(O)c6nc-5c4c3C2=O)NC(=O)C(C)=CC=CC(C)C(O)C(C)C(O)C(C)C(O)C1C (stereo not shown) [Compound 66, 25-O-deacetyl-3′-hydroxy-5′-[4-(2-hydroxyethyl)-1-piperidinyl]benzoxazinorifamycin] | 0.0005 (≈ 0.000564 µM) | 4 (≈ 4.51 µM) | 0.12 (≈ 0.135 µM) | 0.12 (≈ 0.135 µM) | 0.004 (≈ 0.00451 µM) |
| CCCS(=O)(=O)NC1CCN(c2cc(O)c3nc4c5c6c7c(C)c(O)c5c(=O)c(c-4oc3c2)NC(=O)C(C)=CC=CC(C)C(O)C(C)C(O)C(C)C(O)C(C)C(OC)C=COC(C)(O7)C6=O)CC1 (stereo not shown) [Compound 67] | 0.001 (≈ 0.00104 µM) | >8 | 0.5 (≈ 0.519 µM) | 0.12 (≈ 0.125 µM) | 0.008 (≈ 0.00831 µM) |
| COC1C=COC2(C)Oc3c(C)c(O)c4c(=O)c(c5sc6cc(N7CC(C)N(CC8CC8)CC7C)ccc6nc-5c4c3C2=O)NC(=O)C(C)=CC=CC(C)C(O)C(C)C(O)C(C)C(OC(C)=O)C1C [Compound 68, 5′-[(2S,5R)-4-(cyclopropylmethyl)-2,5-dimethylpiperazinyl]benzthiazinorifamycin] | 0.0005 (≈ 0.000517 µM) | >8 | 2 (≈ 2.07 µM) | 0.5 (≈ 0.517 µM) | 0.06 (≈ 0.062 µM) |
| COC1C=COC2(C)Oc3c(C)c(O)c4c(=O)c(c5sc6cc(N7CCC(N(C)C)CC7)ccc6nc-5c4c3C2=O)NC(=O)C(C)=CC=CC(C)C(O)C(C)C(O)C(C)C(OC(C)=O)C1C (stereo not shown) [Compound 69, 5′-[4-N,N-dimethylamino-1-piperidinyl]benzthiazinorifamycin] | 0.00025 (≈ 0.00027 µM) | 4 (≈ 4.31 µM) | 0.5 (≈ 0.539 µM) | 0.5 (≈ 0.539 µM) | 0.015 (≈ 0.0162 µM) |
| COC1C=COC2(C)Oc3c(C)c(O)c4c(=O)c(c5sc6cc(N7CC(C)N(CC8CC8)CC7C)ccc6nc-5c4c3C2=O)NC(=O)C(C)=CC=CC(C)C(O)C(C)C(O)C(C)C(O)C1C [Compound 70, 25-O-deacetyl-5′-[(2S,5R)-4-(cyclopropylmethyl)-2,5-dimethylpiperazinyl]benzthiazinorifamycin] | 0.001 (≈ 0.00108 µM) | >8 | 1 (≈ 1.08 µM) | 1 (≈ 1.08 µM) | 0.03 (≈ 0.0324 µM) |
| COC1C=COC2(C)Oc3c(C)c(O)c4c(=O)c(c5oc6cc(N7CCC(C)(N(C)C)CC7)cc(O)c6nc-5c4c3C2=O)NC(=O)C(C)=CC=CC(C)C(O)C(C)C(O)C(C)C(OC(C)=O)C1C (stereo not shown) [Compound 71, 3′-hydroxy-5′-[4-methyl-4-N,N-dimethylamino-1-piperidinyl]benzoxazinorifamycin] | 0.00012 (≈ 0.000128 µM) | 4 (≈ 4.25 µM) | 0.25 (≈ 0.266 µM) | 0.5 (≈ 0.531 µM) | 0.008 (≈ 0.0085 µM) |
| COC1C=COC2(C)Oc3c(C)c(O)c4c(=O)c(c5oc6cc(N7CCC(C)(NC(C)=O)CC7)cc(O)c6nc-5c4c3C2=O)NC(=O)C(C)=CC=CC(C)C(O)C(C)C(O)C(C)C(OC(C)=O)C1C (stereo not shown) [Compound 72, 3′-hydroxy-5′-[4-methyl-4-acetylamino-1-piperidinyl]benzoxazinorifamycin] | 0.00025 (≈ 0.000262 µM) | >8 | 2 (≈ 2.09 µM) | 0.5 (≈ 0.524 µM) | 0.008 (≈ 0.00838 µM) |
| COC1C=COC2(C)Oc3c(C)c(O)c4c(=O)c(c5oc6cc(N7CCC(C)(N(C)C)CC7)cc(O)c6nc-5c4c3C2=O)NC(=O)C(C)=CC=CC(C)C(O)C(C)C(O)C(C)C(O)C1C (stereo not shown) [Compound 73, 25-O-deacetyl-3′-hydroxy-5′-[4-methyl-4-N,N-dimethylamino-1-piperidinyl]benzoxazinorifamycin] | 0.00025 (≈ 0.000278 µM) | 2 (≈ 2.22 µM) | 0.03 (≈ 0.0334 µM) | 0.12 (≈ 0.133 µM) | 0.002 (≈ 0.00222 µM) |
